Test results: ChEMBL document CHEMBL1201862, “PubChem BioAssay data set” (2004)
Activity calls are given as the source filed them. Rule as the data show it, for most assays here: actives have a measured EC50 and inactives only a lower limit.

How the values were obtained:
[1] = biological target: T1, Calpain-2 catalytic subunit (Sus scrofa, UniProt P43367); assay: m-calpain protease blockers, concentration series – biochemical, fluorogenic peptide substrate, dose response (AID 1420); format: functional
T1 sequence (P43367 whole entry): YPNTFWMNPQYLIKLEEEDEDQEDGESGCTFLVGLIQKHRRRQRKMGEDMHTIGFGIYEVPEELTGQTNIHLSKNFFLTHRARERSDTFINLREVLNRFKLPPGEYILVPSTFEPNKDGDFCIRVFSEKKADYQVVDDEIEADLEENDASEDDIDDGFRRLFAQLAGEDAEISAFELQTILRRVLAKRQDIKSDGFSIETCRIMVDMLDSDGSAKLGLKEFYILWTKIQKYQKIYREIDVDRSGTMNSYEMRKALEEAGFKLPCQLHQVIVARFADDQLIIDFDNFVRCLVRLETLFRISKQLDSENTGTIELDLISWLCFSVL

[2] = test system: BJ; assay: cells; format: functional, cell-based; conditions: Homo sapiens
[3] = test system: BJ; assay: BJ-TERT-LT-ST fibroblast viability loss – cell-based, RAS-independent, luminescence, dose response (AID 1935); format: functional; conditions: Homo sapiens;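 also: BJ fibroblasts immortalized with TERT plus LT and ST oncogenes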
[4] = DRD fibroblast viability loss – cell-based, non-viral oncogenic, luminescence, dose response (AID 1934); format: functional; conditions: Homo sapiens
[5] = test system: BJ; assay: BJ-TERT fibroblast viability loss – cell-based, RAS-independent, luminescence, dose response (AID 1933); format: functional; conditions: Homo sapiens
[6] = NIH3T3 cell viability loss – ATP luminescence, mouse fibroblasts, counter-screen, dose response (AID 2010); format: functional, cell-based;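 also: cells exposed to compound for about 90 hours before reading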
[7] = Trypanosoma cruzi growth suppression in host cells – NIH3T3 host cells, beta-gal luminescence, confirmation (AID 2044); format: functional, cell-based;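 also: intracellular parasites grown in NIH/3T3 mouse fibroblasts as host cells; luminescent beta-galactosidase reporter signal from transgenic T. cruzi replicating inside host cells; inhibitors lower the luminescence signal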
[8] = test system: H4; assay: Luminescence Cell-Based Dose Response HTS to Identify Activators of 5'UTR Stem-Loop Driven Prion Protein mRNA Translation in H4 Neuroglioblastoma Cells. [Related pubchem assays: 1829 (Project Summary), 1814 (Primary HTS)]; format: functional; conditions: Homo sapiens
[9] = Luminescence Cell-Based Dose Response HTS to Identify Activators of Luciferase Translation or Activity in H4 […] Cells. [Related pubchem assays: 1829 (Project Summary), 1814 (Primary HTS)]; format: functional
[10] = biological target: Luciferin 4-monooxygenase (Photinus pyralis, UniProt P08659); assay: inhibition of purified Photinus pyralis luciferase – biochemical, luminescence, dose response (AID 1891)
Sequence of Luciferin 4-monooxygenase (P08659 whole entry): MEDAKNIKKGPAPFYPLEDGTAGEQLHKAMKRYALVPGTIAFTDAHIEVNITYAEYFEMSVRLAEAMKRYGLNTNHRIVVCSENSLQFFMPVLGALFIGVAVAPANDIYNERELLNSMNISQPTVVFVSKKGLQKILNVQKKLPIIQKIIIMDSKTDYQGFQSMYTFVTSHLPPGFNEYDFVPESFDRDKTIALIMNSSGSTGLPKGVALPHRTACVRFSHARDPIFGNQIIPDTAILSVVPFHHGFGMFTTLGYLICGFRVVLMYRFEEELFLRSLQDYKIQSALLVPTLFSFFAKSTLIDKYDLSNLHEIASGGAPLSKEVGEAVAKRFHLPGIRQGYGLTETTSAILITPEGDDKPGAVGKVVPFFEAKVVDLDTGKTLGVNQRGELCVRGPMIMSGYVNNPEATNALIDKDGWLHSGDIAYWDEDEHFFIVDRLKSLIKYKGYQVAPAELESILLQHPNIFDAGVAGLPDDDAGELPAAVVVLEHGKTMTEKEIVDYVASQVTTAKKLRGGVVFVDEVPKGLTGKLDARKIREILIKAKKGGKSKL

[11] = Luminescence Cell-Based Dose Confirmation HTS to Identify Inhibitors of Platelet Dense Granule Release. [Related pubchem assays: 1663 (Primary HTS), 1678 (Summary of Project)]; format: functional
[12] = biological target: Paired box protein Pax-8 (Homo sapiens, UniProt Q06710); assay: PAX8 transcriptional activity inhibition in RMG-I – RMG-I cells, luciferase, cherry-pick, dose response (AID 687027); format: functional, cell-based;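 also: luciferase reporter driven by Pax8 target thyroperoxidase promoter measured by SteadyGlo luminescence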
Sequence of Paired box protein Pax-8 (Q06710 whole entry): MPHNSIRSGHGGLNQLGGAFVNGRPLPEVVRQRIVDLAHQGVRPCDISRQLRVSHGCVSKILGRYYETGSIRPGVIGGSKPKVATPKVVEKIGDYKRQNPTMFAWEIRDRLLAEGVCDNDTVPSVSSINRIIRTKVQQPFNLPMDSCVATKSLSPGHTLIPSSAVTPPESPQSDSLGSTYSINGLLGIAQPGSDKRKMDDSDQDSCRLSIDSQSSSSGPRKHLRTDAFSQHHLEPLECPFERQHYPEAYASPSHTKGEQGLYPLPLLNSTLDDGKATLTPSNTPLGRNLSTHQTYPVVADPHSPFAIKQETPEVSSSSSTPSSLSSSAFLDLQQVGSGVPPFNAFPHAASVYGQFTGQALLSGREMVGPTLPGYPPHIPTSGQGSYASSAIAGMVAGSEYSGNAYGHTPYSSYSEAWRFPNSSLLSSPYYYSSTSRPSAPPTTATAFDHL

[13] = fluconazole-exposed Candida albicans growth modulators – fluorescence, retest, confirmation (AID 2467); format: functional, cell-based
[14] = NIH-3T3 fibroblast cytotoxicity, dose response, cytotoxicity control, cell-based, fluorescence, Alamar Blue, secondary assay (AID 2327); format: functional;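 also: NIH-3T3 mouse fibroblasts cultured with fluconazole at 8 µg/mL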
[15] = biological target: T2, Protein RecA (Mycobacterium tuberculosis, UniProt P9WHJ3); assay: Fluorescence Cell-Free Homogeneous Dose Retest to Identify Inhibitors of RecA-Intein Splicing Activity. [Related pubchem assays (depositor defined):AID2097, AID2223, AID489010, AID492950]; format: functional
T2 sequence (P9WHJ3 whole entry): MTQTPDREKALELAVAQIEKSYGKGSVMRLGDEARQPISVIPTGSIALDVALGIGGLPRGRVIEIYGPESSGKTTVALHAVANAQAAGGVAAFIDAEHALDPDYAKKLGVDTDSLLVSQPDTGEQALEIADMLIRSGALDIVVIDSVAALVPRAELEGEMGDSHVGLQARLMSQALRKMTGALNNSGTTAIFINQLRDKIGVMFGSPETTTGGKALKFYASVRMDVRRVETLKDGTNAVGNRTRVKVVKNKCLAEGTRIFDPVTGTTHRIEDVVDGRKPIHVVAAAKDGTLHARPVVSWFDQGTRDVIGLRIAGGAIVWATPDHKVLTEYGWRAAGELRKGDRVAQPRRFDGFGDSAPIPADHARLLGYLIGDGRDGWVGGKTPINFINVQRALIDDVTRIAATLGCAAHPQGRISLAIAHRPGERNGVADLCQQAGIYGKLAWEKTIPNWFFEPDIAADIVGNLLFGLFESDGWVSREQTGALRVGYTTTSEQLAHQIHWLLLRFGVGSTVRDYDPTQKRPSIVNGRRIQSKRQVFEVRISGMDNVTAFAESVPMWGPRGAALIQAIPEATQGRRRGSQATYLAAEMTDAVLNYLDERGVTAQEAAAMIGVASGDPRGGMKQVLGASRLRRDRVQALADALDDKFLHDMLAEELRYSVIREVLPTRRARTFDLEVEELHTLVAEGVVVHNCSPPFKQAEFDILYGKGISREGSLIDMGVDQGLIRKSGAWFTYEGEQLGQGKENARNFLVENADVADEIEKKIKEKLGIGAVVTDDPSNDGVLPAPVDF

[16] = biological target: T3, Replicative DNA helicase DnaB (Mycobacterium tuberculosis, UniProt P9WMR3); assay: DnaB intein splicing inhibitors, dose response, biochemical, cell-free fluorescence (AID 449749); format: functional
T3 sequence (P9WMR3 whole entry): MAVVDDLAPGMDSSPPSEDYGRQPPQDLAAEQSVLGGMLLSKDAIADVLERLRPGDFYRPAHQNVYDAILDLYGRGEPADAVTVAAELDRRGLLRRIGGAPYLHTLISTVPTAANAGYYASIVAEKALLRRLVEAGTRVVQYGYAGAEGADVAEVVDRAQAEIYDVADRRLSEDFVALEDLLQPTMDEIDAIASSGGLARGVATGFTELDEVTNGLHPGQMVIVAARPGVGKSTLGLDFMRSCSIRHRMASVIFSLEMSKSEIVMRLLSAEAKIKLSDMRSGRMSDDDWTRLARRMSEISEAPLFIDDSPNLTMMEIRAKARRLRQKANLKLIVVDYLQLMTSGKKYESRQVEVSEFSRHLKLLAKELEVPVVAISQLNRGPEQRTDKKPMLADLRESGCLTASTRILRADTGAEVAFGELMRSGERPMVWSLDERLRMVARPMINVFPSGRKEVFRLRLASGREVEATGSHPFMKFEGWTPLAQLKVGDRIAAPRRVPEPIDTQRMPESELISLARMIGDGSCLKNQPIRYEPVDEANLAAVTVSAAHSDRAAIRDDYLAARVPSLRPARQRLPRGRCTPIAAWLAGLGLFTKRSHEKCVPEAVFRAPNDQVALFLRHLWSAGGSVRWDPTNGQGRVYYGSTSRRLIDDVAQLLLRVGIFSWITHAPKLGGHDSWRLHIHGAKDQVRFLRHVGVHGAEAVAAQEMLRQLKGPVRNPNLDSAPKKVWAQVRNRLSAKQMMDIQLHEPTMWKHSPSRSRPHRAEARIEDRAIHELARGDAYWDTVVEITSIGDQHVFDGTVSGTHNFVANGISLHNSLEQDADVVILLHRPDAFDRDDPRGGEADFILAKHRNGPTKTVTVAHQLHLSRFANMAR

For `CC(C)CC(C(=O)OCC(=O)c1c(N)n(C)c(=O)n(C)c1=O)N1C(=O)C2CC=CCC2C1=O` (centres undefined), the IC50 [1] was 12.9 µM (not active).

With `CN1CCN(C(=O)/C=C/c2ccc([N+](=O)[O-])o2)CC1` the EC50 [2] was > 150 µM (not active), the EC50 [3] was > 150 µM (not active) and the EC50 [4] was > 150 µM (not active). The EC50 [5] was 44.6 µM (active).

In the case of `CCOC(=O)C1=C(CNCCc2ccc(Cl)cc2)NC(=O)NC1c1ccc2c(c1)OCO2` (centres undefined), the EC50 [6] is reported as > 60 µM (not active), the IC50 [1] is reported as > 50 µM (not active) and the EC50 [7] is reported as 13.3 µM (active).

For `CC(=O)c1ccc(N=C(S)N(Cc2ccccc2)C(C)C2CC2)cc1` (centres undefined), the IC50 [1] was 23.9 µM (not active).

For `c1ccc(CCn2nnnc2CN2CCN(C3CCCC3)CC2)cc1`, the IC50 [1] was > 50 µM (not active).

With `Cc1c(C(=O)NCc2ccoc2)oc2ccc3c(c12)C(=O)CC(C)(C)O3` the EC50 [8] was > 120 µM (not active) and the EC50 [9] was 33.7 µM (active).

With `CC(Sc1ccccc1)C(=O)Nc1ccccc1C(=O)N1CCOCC1` (centres undefined) the EC50 [10] was > 112 µM (not active) and the EC50 [11] was > 112 µM (not active).

With `C[C@@H]1CN([C@H](C)CO)C(=O)c2cc(NS(=O)(=O)c3ccc(F)cc3)ccc2O[C@@H]1CN(C)Cc1ccc(C(F)(F)F)cc1` the AC50 [12] was 22.2 µM (active).

In the case of `CCNS(=O)(=O)c1ccc(NC(=O)c2cccnc2)cc1`, the EC50 [10] is reported as > 112 µM (not active), the EC50 [13] is reported as > 38 µM (not active) and the EC50 [11] is reported as > 112 µM (not active). For the same compound, the EC50 [14] was > 160 µM (inactive).

For `O=C(CSc1ncc(C(F)(F)F)cc1Cl)N1CCN(S(=O)(=O)c2ccc(Cl)cc2)CC1`, the IC50 [1] was 4.37 µM (not active).

In the case of `O=C(C[C@H]1CC[C@@H]2[C@H](COC[C@@H](O)CN2Cc2ccc(F)cc2)O1)NCc1ccccc1Cl`, the AC50 [12] is reported as 41.2 µM (active).

For `O=C(Oc1ccc(Br)cc1)C1CC(=O)N(c2ccc(F)cc2)C1` (centres undefined), the EC50 [15] was 11.8 µM (active) and the AC50 [16] was 7.12 µM (active).

In the case of `COC(=O)c1ccccc1NC(=S)NC(=O)COc1ccccc1`, the IC50 [1] is reported as 6.37 µM (not active).

In the case of `N#CC1=C(N)Oc2[nH]nc(-c3cccs3)c2C1c1ccsc1` (centres undefined), the EC50 [15] is reported as 0.672 µM (active) and the AC50 [16] is reported as 2.2 µM (active).

With `NC(=O)N/N=C/c1cn(-c2ccccc2)nc1-c1cccs1` the EC50 [2] was > 150 µM (not active), the EC50 [3] was > 150 µM (not active) and the EC50 [4] was 36 µM (active). The EC50 [5] was 19.4 µM (active).

In the case of `CC(C)NC(=S)N/N=C/c1ccc2c(c1)OCCO2`, the IC50 [1] is reported as > 50 µM (not active).

In the case of `CC1CCN(CCc2nc3cc(NS(=O)(=O)c4ccccc4)ccc3n2C)CC1`, the AC50 [12] is reported as 12.1 µM (active).

In the case of `Cn1c(NC(=O)Cc2cccs2)cc(=O)n(C)c1=O`, the EC50 [10] is reported as > 112 µM (not active) and the EC50 [11] is reported as > 112 µM (not active).
